# Experimental data published in patent US12139480B2, “5-thiazolecarboxamide kinase inhibitor and uses thereof” (iOmx Therapeutics AG, priority 2018, dated 2024).
# How the values were obtained:
# [1] = biological target: T1, ABL1 wt (Homo sapiens, UniProt P00519); test: radiometric protein kinase assay (33PanQinase), IC50; assay type: biochemical
# T1 construct: includes the ABL1 wild-type protein (amino acids P118-S525) and mutants forms; purchased ProQinase
# T1 sequence (P00519 118-535 limits assumed): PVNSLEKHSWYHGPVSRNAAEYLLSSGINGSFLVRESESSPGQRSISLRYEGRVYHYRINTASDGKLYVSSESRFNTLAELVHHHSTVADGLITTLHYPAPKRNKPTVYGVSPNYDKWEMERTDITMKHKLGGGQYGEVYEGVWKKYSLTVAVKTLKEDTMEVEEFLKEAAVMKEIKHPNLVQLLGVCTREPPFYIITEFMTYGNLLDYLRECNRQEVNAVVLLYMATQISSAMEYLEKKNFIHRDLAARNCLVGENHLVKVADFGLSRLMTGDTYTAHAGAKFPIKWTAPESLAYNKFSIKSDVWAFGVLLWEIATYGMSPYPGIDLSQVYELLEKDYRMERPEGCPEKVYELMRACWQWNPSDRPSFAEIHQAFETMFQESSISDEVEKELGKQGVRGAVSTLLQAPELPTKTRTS
# Method: (§1) Incorporation of 33Pi was determined with a microplate scintillation counter (Microbeta, Wallac).
# [2] = biological target: SRC (GST-HIS-tag) (Homo sapiens, UniProt P12931); test: as above; assay type: biochemical
# Chain of SRC (GST-HIS-tag) (P12931 whole entry): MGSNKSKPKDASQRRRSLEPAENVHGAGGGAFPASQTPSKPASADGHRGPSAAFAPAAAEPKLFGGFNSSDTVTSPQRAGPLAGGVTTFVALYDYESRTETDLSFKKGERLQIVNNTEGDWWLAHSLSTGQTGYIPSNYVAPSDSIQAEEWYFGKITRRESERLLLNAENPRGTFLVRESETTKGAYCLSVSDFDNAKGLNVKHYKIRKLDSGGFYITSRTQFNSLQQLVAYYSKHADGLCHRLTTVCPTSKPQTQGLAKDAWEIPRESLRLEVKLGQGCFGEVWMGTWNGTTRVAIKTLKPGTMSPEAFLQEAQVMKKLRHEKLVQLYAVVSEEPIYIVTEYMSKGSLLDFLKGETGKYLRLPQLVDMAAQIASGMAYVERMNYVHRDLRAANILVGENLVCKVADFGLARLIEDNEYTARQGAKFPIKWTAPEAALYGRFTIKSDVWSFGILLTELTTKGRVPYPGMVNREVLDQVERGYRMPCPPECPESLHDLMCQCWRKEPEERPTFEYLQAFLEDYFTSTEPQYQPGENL
# Method: as §1
# [3] = system: M579-A2-luc tumour cells; test: sensitisation of tumour cells to in-vitro TNF attack, luciferase-based killing assay; assay type: cell-based; conditions: TNF 10 ng/mL, compound between about 10 and 100 nM
# Method: PANC1-luc is an HLA-A2.1+ luciferase-expressing pancreatic adenocarcinoma (PDAC) tumour cell line, and M579-A2-luc is an HLA-A2.1+ luciferase-expressing melanoma tumour cell line.
# After lysis, luciferase assay buffer is added and immediately the luciferase intensity was measured by using the TECAN-Spark microplate reader.
# [4] = biological target: T2, SIK1 (Homo sapiens, UniProt P57059); test: radiometric protein kinase assay (33PanQinase), IC50; assay type: biochemical
# T2 construct: purchased ProQinase
# T2 sequence (P57059 whole entry): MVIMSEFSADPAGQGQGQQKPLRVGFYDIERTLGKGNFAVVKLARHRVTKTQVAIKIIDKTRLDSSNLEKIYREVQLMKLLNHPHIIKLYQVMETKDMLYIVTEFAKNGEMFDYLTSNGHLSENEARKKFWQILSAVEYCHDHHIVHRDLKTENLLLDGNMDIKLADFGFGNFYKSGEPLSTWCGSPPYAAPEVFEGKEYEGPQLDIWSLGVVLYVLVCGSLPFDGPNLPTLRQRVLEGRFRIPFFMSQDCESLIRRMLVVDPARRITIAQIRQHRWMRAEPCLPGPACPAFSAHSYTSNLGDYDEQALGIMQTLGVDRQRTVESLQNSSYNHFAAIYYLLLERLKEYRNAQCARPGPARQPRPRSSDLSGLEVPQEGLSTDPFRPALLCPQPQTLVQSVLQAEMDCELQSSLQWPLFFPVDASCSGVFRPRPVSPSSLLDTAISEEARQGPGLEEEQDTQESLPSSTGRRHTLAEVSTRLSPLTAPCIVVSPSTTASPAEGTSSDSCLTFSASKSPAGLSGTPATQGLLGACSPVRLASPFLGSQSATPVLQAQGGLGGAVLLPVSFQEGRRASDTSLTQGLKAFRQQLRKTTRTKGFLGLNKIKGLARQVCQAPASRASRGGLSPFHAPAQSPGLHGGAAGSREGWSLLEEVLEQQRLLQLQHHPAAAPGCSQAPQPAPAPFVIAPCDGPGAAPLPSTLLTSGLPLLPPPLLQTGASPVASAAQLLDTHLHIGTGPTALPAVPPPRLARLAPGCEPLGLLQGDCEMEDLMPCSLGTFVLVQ
# Method: as §1
# [5] = biological target: T3, SIK2 (Homo sapiens, UniProt Q9H0K1); test: as above; assay type: biochemical
# T3 construct: purchased ProQinase
# T3 sequence (Q9H0K1 whole entry): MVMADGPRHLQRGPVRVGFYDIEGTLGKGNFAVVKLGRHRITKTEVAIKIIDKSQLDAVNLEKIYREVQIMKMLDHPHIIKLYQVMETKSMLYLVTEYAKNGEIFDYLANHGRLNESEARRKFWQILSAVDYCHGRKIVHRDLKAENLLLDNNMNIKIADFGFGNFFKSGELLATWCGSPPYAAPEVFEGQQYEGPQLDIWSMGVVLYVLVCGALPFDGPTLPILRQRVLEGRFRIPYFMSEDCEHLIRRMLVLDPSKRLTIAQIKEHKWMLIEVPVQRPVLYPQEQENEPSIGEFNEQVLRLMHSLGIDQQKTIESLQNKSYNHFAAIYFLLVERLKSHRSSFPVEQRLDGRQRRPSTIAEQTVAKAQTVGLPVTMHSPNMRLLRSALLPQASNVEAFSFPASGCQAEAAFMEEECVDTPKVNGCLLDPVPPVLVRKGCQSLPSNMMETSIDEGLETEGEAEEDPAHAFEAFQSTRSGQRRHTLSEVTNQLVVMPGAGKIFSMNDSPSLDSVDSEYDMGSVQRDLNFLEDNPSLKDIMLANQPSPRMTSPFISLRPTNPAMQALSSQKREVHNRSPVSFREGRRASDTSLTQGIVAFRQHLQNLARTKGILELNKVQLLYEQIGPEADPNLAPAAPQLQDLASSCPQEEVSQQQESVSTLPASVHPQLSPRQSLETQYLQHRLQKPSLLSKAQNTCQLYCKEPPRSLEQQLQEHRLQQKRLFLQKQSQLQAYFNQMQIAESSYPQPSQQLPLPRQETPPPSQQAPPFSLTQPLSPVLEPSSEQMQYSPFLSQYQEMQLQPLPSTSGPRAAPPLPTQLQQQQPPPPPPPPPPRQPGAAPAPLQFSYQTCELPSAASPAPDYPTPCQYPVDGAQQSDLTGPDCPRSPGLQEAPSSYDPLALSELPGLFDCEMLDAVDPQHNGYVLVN
# Method: as §1
# [6] = biological target: T4, SIK3 (Homo sapiens, UniProt Q9Y2K2); test: as above; assay type: biochemical
# T4 construct: purchased ProQinase
# T4 sequence (Q9Y2K2 whole entry): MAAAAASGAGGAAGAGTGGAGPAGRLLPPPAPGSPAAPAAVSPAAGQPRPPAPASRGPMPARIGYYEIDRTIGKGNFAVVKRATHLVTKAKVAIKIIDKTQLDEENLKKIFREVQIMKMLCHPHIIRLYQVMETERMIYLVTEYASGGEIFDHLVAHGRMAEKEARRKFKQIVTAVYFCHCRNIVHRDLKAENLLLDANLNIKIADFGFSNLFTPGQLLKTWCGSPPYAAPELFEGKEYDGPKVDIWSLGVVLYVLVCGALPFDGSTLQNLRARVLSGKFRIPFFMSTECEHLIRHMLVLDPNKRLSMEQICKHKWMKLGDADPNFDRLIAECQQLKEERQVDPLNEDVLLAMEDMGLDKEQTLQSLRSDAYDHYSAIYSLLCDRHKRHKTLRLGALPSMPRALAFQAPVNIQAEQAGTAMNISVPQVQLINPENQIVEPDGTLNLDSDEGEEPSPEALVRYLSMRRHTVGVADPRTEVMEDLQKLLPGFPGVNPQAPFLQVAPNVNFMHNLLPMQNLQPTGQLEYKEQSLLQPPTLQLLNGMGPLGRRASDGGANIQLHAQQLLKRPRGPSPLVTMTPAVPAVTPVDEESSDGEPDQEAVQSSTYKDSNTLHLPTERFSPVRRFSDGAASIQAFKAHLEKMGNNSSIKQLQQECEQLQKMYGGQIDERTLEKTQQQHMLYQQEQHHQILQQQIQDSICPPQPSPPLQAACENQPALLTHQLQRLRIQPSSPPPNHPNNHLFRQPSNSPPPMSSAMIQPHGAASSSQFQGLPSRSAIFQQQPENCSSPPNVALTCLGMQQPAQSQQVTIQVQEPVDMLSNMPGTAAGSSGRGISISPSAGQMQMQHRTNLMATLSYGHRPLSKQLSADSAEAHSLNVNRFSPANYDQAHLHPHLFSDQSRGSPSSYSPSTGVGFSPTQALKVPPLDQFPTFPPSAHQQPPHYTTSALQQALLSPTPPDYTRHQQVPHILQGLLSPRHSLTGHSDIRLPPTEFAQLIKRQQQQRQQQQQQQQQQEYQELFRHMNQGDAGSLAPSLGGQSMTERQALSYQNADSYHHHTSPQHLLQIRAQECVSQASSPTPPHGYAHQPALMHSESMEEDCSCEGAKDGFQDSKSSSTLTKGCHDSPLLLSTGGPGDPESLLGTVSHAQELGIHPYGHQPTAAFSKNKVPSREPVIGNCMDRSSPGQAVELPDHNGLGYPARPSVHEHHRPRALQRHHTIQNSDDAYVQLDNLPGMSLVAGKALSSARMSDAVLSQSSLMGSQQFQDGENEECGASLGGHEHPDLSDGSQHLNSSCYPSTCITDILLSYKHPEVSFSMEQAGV
# Method: as §1
# [7] = system: K562 CML cells; conditions: similar study; dasatinib 10 and 30 mg/kg/day; imatinib 200 mg/kg/day; cited from earlier work
# [8] = system: K562 human CML tumours; conditions: dasatinib 8-50 mg/kg PO once a day for 10 days, 5-days-on and 2-days off; imatinib high doses; cited from earlier work
# [9] = humans; prescribing information; cited from earlier work
inhibitory activity [1],inhibitory activity [2],inhibitory activity [4],inhibitory activity [5],inhibitory activity [6],SMILES,cytotoxicity in the presence of TNF compared to inhibitor alone [3],survival / intracranial tumour growth [7],tumour response [8],terminal / elimination half-life [9]
potent inhibitor,potent inhibitor,strong inhibitor,strong inhibitor,weak inhibitor,"COc1c(F)cccc1NC(=O)c1cnc(Nc2cc(N3CCN(CCO)CC3)nc(C)n2)s1 [Compound B4, N-(3-fluoro-2-methoxyphenyl)-2-((6-(4-(2-hydroxyethyl)piperazin-1-yl)-2-methylpyrimidin-4-yl)amino)thiazole-5-carboxamide]",fails to exhibit cytotoxicity,,,
potent ABL1 & SRC inhibitor,potent ABL1 & SRC inhibitor,low inhibitory activity,low inhibitory activity,low inhibitory activity,"CCOc1cccc(Cl)c1NC(=O)c1cnc(Nc2cc(N3CCN(CCO)CC3)nc(C)n2)s1 [Compound B8, N-(2-chloro-6-ethoxyphenyl)-2-((6-(4-(2-hydroxyethyl)piperazin-1-yl)-2-methylpyrimidin-4-yl)amino)thiazole-5-carboxamide]",fails to exhibit cytotoxicity,,,
,,,,,Cc1ccc(NC(=O)c2ccc(CN3CCN(C)CC3)cc2)cc1Nc1nccc(-c2cccnc2)n1 [imatinib],,failed to inhibit intracranial tumour growth,failed to produce a comparative response,
,,,,,Cc1cn(-c2cc(NC(=O)c3ccc(C)c(Nc4nccc(-c5cccnc5)n4)c3)cc(C(F)(F)F)c2)cn1 [nilotinib],,,,approximately 17 hours

SMILES,inhibitory activity [1],inhibitory activity [2],inhibitory activity [4],inhibitory activity [5],inhibitory activity [6],cytotoxicity in the presence of TNF compared to inhibitor alone [3],survival / intracranial tumour growth [7],tumour response [8],terminal / elimination half-life [9]
"Cc1nc(Nc2ncc(C(=O)Nc3c(Cl)cccc3Br)s2)cc(N2CCN(CCO)CC2)n1 [Compound B1, N-(2-bromo-6-chlorophenyl)-2-((6-(4-(2-hydroxyethyl)piperazin-1-yl)-2-methylpyrimidin-4-yl)amino)thiazole-5-carboxamide]",pan-SIK and ABL1 & SRC inhibitor,pan-SIK and ABL1 & SRC inhibitor,,,,increased cytotoxicity,,,
